For nine compounds, IC50 results are on record in patent US9745295B2, “Thiazole-substituted aminoheteroaryls as spleen tyrosine kinase inhibitors” (Merck Sharp & Dohme Corp., priority 2013, dated 2017).

The assay addresses T1, recombinant human GST-SYK (Homo sapiens, UniProt P43405).
T1 construct: purchased Carna Biosciences 08-176
Nature of the assay: Homogeneous Time-Resolved Fluorescence (HTRF) assay for the recombinant human Syk enzyme. The settings on record: recombinant human GST-SYK 5 pM, ATP 25 μM, read-out: rhSYK IC50. In kind it is biochemical. The procedure:
Homogeneous Time-Resolved Fluorescence (HTRF) Assay for the Recombinant Human Syk Enzyme
A recombinant GST-hSYK fusion protein was used to measure potency of compounds to inhibit human Syk activity. The recombinant human GST-SYK (Carna Biosciences #08-176) (5 pM final concentration) was incubated with various concentrations of the inhibitor diluted in DMSO (0.1% final concentration) for 10 minutes at room temperature in 15 mM Tris-HCl (pH 7.5), 0.01% tween 20, 2 mM DTT in 384 well plate format. To initiate the reaction the biotinylated substrate peptide (250 nM final concentration) that contains the phosphorylation site for Syk was added with magnesium (5 mM final concentration) and ATP (25 μM final concentration). Final volume of the reaction was 10 μL. Phosphorylation of the peptide was allowed to proceed for 45′ at room temperature. To quench the reaction and detect the phosphorylated product, 2 nM of a Europium-anti-phosphotyrosine antibody (Perkin Elmer #AD0161) and 70 nM SA-APC (Perkin-Elmer #CR130-100) were added together in 15 mM Tris pH 7.5, 40 mM EDTA, 0.01% tween 20. Final volume of the quenching solution was 10 μL.
The resulting HTRF signal was measured after 30 minutes on an EnVision (Perkin-Elmer) reader using a time-resolved fluorescence protocol. Table A below lists activities as IC50 values (nM) for representative compounds of the invention.
For orientation: In TR-FRET formats the signal depends on donor and acceptor labels being close together.

Each structure is given as a SMILES string.

Consider `COc1ncc(Nc2nccc(C(F)(F)F)n2)cc1-c1cnc([C@@]2(O)CC[C@H](C(=O)O)C(C)(C)C2)s1` (single isomer, unassigned) [Example 4.19, (1S,4R or 1R,4S)-4-hydroxy-4-[5-(2-methoxy-5-{[4-(trifluoromethyl)pyrimidin-2-yl]amino}pyridin-3-yl)-1,3-thiazol-2-yl]-2,2-dimethylcyclohexane carboxylic acid], for which the IC50 (in general, the concentration that gives 50% inhibition) was 4.13 nM.

On to `Cc1cc(Nc2cc(C(F)(F)F)ncn2)nc(-c2cnc([C@@]3(O)CC[C@H](C(N)=O)[C@H](C)C3)s2)c1` (relative stereo) [Example 1.19, rel-(1S,2R,4R or S)-4-hydroxy-2-methyl-4-[5-(4-methyl-6-{[6-(trifluoromethyl)pyrimidin-4-yl]amino}pyridin-2-yl)-1,3-thiazol-2-yl]cyclohexane-carboxamide], for which the IC50 was found to be 0.42 nM.

Regarding `CC1(C)CC(O)(c2ncc(-c3nccc(Nc4cc(C(F)(F)F)ccn4)n3)s2)CCC1C(=O)O` (single isomer, unassigned) [Example 1.13, (1S,4R or 1R,4S)-4-hydroxy-2,2-dimethyl-4-[5-(4-{[4-(trifluoromethyl)pyridin-2-yl]amino}pyrimidin-2-yl)-1,3-thiazol-2-yl]cyclohexane-carboxylic acid], the IC50 was 0.564 nM.

In the case of `Cc1cc(Nc2ncc(F)c(C)n2)cc(-c2cnc(C(C)(O)[C@H]3CC[C@H](C(=O)O)CC3)s2)n1` (single isomer, unassigned) [Example 4.20, (trans)-4-((R or S)-1-(5-{4-[(5-fluoro-4-methylpyrimidin-2-yl)amino]-6-methylpyridin-2-yl}-1,3-thiazol-2-yl)-1-hydroxyethyl]cyclo-hexanecarboxylic acid], the IC50 worked out at 4.4 nM.

For the compound `Cc1cc(Nc2nccc(C)n2)cc(-c2cnc(C3(O)CCC(C(=O)O)C(C)(C)C3)s2)n1` (single isomer, unassigned) [Example 4.16, (1S,4R or 1R,4S)-4-hydroxy-2,2-dimethyl-4-(5-{6-methyl-4-[(4-methylpyrimidin-2-yl)amino]pyridin-2-yl}-1,3-thiazol-2-yl)cyclohexane-carboxylic acid], the IC50 was 6.91 nM.

In the case of `Cc1cc(Nc2cc(C(F)(F)F)ncn2)nc(-c2cnc(C3(O)CCCc4cc(C(=O)O)ccc43)s2)c1` (single isomer, unassigned) [Example 2.7, (R or S)-5-hydroxy-5-[5-(4-methyl-6-{[6-(trifluoromethyl)pyrimidin-4-yl]amino}pyridin-2-yl)-1,3-thiazol-2-yl]-5,6,7,8-tetrahydronaphthalene-2-carboxylic acid], the IC50 stood at 0.516 nM.

On to `Cc1cc(Nc2cnccn2)nc(-c2cnc(C3(O)CCCc4cc(C(=O)O)ccc43)s2)c1` (single isomer, unassigned) [Example 2.6, (R or S)-5-hydroxy-5-{5-[4-methyl-6-(pyrazin-2-ylamino)pyridin-2-yl]-1,3-thiazol-2-yl}-5,6,7,8-tetrahydronaphthalene-2-carboxylic acid], for which the concentration for half-maximal inhibition (IC50) was 0.0289 nM.

`CCCCOC(=O)[C@H]1CC[C@H](C(C)(O)c2ncc(-c3cc(Nc4nccc(C(F)(F)F)n4)cc(C)n3)s2)CC1` (single isomer, unassigned) [Example 4.6, butyl (trans)-4-((R or S)-1-hydroxy-[5-(6-methyl-4-{[4-(trifluoromethyl)pyrimidin-2-yl]amino}pyridin-2-yl)-1,3-thiazol-2-yl]ethyl}cyclohexane carboxylate]: the IC50 was found to be 375 nM.

`Cc1cc(Nc2cc(C(F)(F)F)ncn2)nc(-c2cnc(C3(O)CCC(C(N)=O)C(C)(C)C3)s2)c1` (single isomer, unassigned) [Example 3.5, (1S,4R or 1R,4S)-4-hydroxy-2,2-dimethyl-4-[5-(4-methyl-6-{[6-(trifluoromethyl)pyrimidin-4-yl]amino}pyridin-2-yl)-1,3-thiazol-2-yl]cyclohexanecarboxamide]: the IC50 was found to be 0.562 nM.
